Where two headings read alike, the source gives them in different places.
Tested on: cancer cell lines
Assay: Cancer cell proliferation activity (CellTiterGlo, 72 h)
Format: cell-based
Settings: 72 h, 72 h, read-out: IC50
Procedure, shortened: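 Readout is CellTiterGlo luminescence after 72 h compound exposure (0.1% DMSO final), started one day post-seeding, at 37 °C.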

Q: Which IC50 (5637 cell line (bladder)) does the source give for `O=c1[nH]c(=O)n([C@H]2C[C@H](O)[C@](CO)(CF)O2)cc1F` [Cpd. No. 112, 5-fluoro-1-((2R,4S,5R)-5-(fluoromethyl)-4-hydroxy-5-(hydroxymethyl)tetrahydrofuran-2-yl)pyrimidine-2,4(1H,3H)-dione] here?
A: 2.89 µM

Q: What about the IC50 (CLS439 cell line (bladder)) of the same compound?
A: > 50 µM

Q: And the IC50 (HS729 cell line (muscle))?
A: > 50 µM

Q: What about the IC50 (HSS78T cell line) of the same compound?
A: > 50 µM

Q: What about the IC50 (JAR cell line (placenta)) of the same compound?
A: > 50 µM

Q: What about the IC50 (SKMELS cell line) of the same compound?
A: > 50 µM

Q: And the IC50 (Homo sapiens, 22Rv1, 72 h, 22RV1 cell line (prostate))?
A: 1.5 µM

Q: And the IC50 (Homo sapiens, 786-0, 72 h, 786O cell line (kidney))?
A: > 50 µM

Q: What about the IC50 (Homo sapiens, A204, 72 h, A204 cell line (muscle)) of the same compound?
A: 5.28 µM

Q: What about the IC50 (Homo sapiens, A549, 72 h, A549 cell line) of the same compound?
A: 2.52 µM

Q: What about the IC50 (Homo sapiens, A673, 72 h, A673 cell line (bone)) of the same compound?
A: 5.33 µM

Q: And the IC50 (Homo sapiens, A2780, 72 h, A2780 cell line (ovary))?
A: > 50 µM

Q: What about the IC50 (Homo sapiens, A-375, 72 h, A375 cell line (skin)) of the same compound?
A: 6.3 µM

Q: And the IC50 (Homo sapiens, A-431, 72 h, A431 cell line (skin))?
A: 0.34 µM

Q: What about the IC50 (Homo sapiens, ACHN, ACHN cell line (kidney)) of the same compound?
A: 1.51 µM

Q: And the IC50 (Homo sapiens, ASPC1, 72 h, ASPC1 cell line (pancreas))?
A: 0.58 µM

Q: And the IC50 (Homo sapiens, BT-20, 72 h, BT20 cell line (breast))?
A: > 50 µM

Q: What about the IC50 (Homo sapiens, BXPC-3, 72 h, BXPC3 cell line (pancreas)) of the same compound?
A: 0.08 µM

Q: And the IC50 (Homo sapiens, C-33-A, C33A cell line (cervical))?
A: 3.92 µM

Q: And the IC50 (Homo sapiens, CAKI-1, 72 h, CAKI1 cell line (kidney))?
A: > 50 µM

Q: What about the IC50 (Homo sapiens, COLO 205, 72 h, COLO205 cell line (colon)) of the same compound?
A: 1.83 µM

Q: What about the IC50 (Homo sapiens, COLO-678, 72 h, COLO678 cell line (colon)) of the same compound?
A: > 50 µM

Q: What about the IC50 (Homo sapiens, Ca-Ski, CASKI cell line (cervical)) of the same compound?
A: 7.06 µM

Q: And the IC50 (Homo sapiens, Caco-2, 72 h, CACO2 cell line (colon))?
A: > 50 µM

Q: And the IC50 (Homo sapiens, Calu-6, 72 h, CALU6 cell line (lung))?
A: 4.68 µM

Q: What about the IC50 (Homo sapiens, DLD-1, 72 h, DLD1 cell line (colon)) of the same compound?
A: > 50 µM

Q: What about the IC50 (Homo sapiens, DU-145, 72 h, DU145 cell line (prostate)) of the same compound?
A: 3.15 µM

Q: And the IC50 (Homo sapiens, EFO-21, 72 h, EFO21 cell line (ovary))?
A: 16.9 µM

Q: What about the IC50 (Homo sapiens, EJ-28, 72 h, EJ28 cell line (bladder)) of the same compound?
A: 5.41 µM

Q: And the IC50 (Homo sapiens, Granta-519, 72 h, GRANTA-519 cell line (hematological))?
A: 3.3 µM

Q: What about the IC50 (Homo sapiens, HCT-15, 72 h, HCT15 cell line (colon)) of the same compound?
A: > 50 µM

Q: What about the IC50 (Homo sapiens, HCT-116, 72 h, HCT116 cell line (colon)) of the same compound?
A: > 50 µM

Q: And the IC50 (Homo sapiens, HEK293, 72 h, HEK293 cell line (kidney))?
A: > 50 µM

Q: What about the IC50 (Homo sapiens, HL-60, 72 h, HL-60 cell line (hematological)) of the same compound?
A: > 50 µM

Q: What about the IC50 (Homo sapiens, HT-29, 72 h, HT29 cell line (colon)) of the same compound?
A: 2.8 µM

Q: What about the IC50 (Homo sapiens, HT-1080, 72 h, HT1080 cell line (connective tissue)) of the same compound?
A: > 50 µM

Q: What about the IC50 (Homo sapiens, HeLa, HELA cell line (cervical)) of the same compound?
A: > 50 µM

Q: And the IC50 (Homo sapiens, HepG2, 72 h, HEPG2 cell line (liver))?
A: 3.4 µM

Q: What about the IC50 (Homo sapiens, IGROV-1, 72 h, IGROV1 cell line (ovary)) of the same compound?
A: > 50 µM

Q: What about the IC50 (Homo sapiens, IMR-90, 72 h, IMR.90 cell line) of the same compound?
A: > 50 µM

Q: And the IC50 (Homo sapiens, J82, 72 h, J82 cell line (bladder))?
A: 1.32 µM

Q: What about the IC50 (Homo sapiens, JEG-3, 72 h, JEG3 cell line (placenta)) of the same compound?
A: 4.2 µM

Q: And the IC50 (Homo sapiens, JIMT-1, 72 h, JIMT1 cell line (breast))?
A: > 50 µM

Q: And the IC50 (Homo sapiens, K562, 72 h, K-562 cell line (hematological))?
A: > 50 µM

Q: And the IC50 (Homo sapiens, Kasumi 1, 72 h, KASUMI-1 cell line (hematological))?
A: > 50 µM

Q: What about the IC50 (Homo sapiens, L-363, 72 h, L-363 cell line (hematological)) of the same compound?
A: 5.63 µM

Q: What about the IC50 (Homo sapiens, LoVo, LOVO cell line (colon)) of the same compound?
A: 1.95 µM

Q: What about the IC50 (Homo sapiens, MCF7, 72 h, MCF7 cell line (breast)) of the same compound?
A: 1.04 µM

Q: What about the IC50 (Homo sapiens, MDA-MB-231, 72 h, MDAMB231 cell line (breast)) of the same compound?
A: > 50 µM

Q: What about the IC50 (Homo sapiens, MDA-MB-435, 72 h, MDAMB435 cell line (skin)) of the same compound?
A: > 50 µM

Q: What about the IC50 (Homo sapiens, MDA-MB-436, 72 h, MDAMB436 cell line (breast)) of the same compound?
A: 1.43 µM

Q: And the IC50 (Homo sapiens, MDA-MB-468, 72 h, MDAMB468 cell line (breast))?
A: > 50 µM

Q: What about the IC50 (Homo sapiens, MG-63, 72 h, MG63 cell line (bone)) of the same compound?
A: 4.7 µM

Q: What about the IC50 (Homo sapiens, MHH-ES-1, 72 h, MHHES1 cell line (bone)) of the same compound?
A: > 50 µM

Q: And the IC50 (Homo sapiens, MIA PaCa-2, 72 h, MIAPACA2 cell line (pancreas))?
A: 6.39 µM

Q: What about the IC50 (Homo sapiens, MINO, MINO cell line (hematological)) of the same compound?
A: 2.3 µM

Q: What about the IC50 (Homo sapiens, MV4-11, 72 h, MV4-11 cell line (hematological)) of the same compound?
A: 0.79 µM

Q: And the IC50 (Homo sapiens, NCI-H23, 72 h, NCI-H23 cell line (lung))?
A: 4.86 µM

Q: What about the IC50 (Homo sapiens, NCI-H82, 72 h, NCIH82 cell line (lung)) of the same compound?
A: > 50 µM

Q: What about the IC50 (Homo sapiens, NCI-H292, 72 h, NCIH292 cell line (lung)) of the same compound?
A: > 50 µM

Q: And the IC50 (Homo sapiens, NCI-H460, 72 h, NCIH460 cell line (lung))?
A: 2.29 µM

Q: What about the IC50 (Homo sapiens, OVCAR-3, 72 h, OVCAR3 cell line (ovary)) of the same compound?
A: > 50 µM

Q: And the IC50 (Homo sapiens, OVCAR-4, 72 h, OVCAR4 cell line (ovary))?
A: > 50 µM

Q: And the IC50 (Homo sapiens, PANC-1, 72 h, PANC1 cell line (pancreas))?
A: > 50 µM

Q: And the IC50 (Homo sapiens, PC-3, 72 h, PC3 cell line (prostate))?
A: > 50 µM

Q: What about the IC50 (Homo sapiens, PLC-PRF-5, 72 h, PLCPRF5 cell line (liver)) of the same compound?
A: 3.79 µM

Q: What about the IC50 (Homo sapiens, Panc1005, 72 h, PANC1005 cell line (pancreas)) of the same compound?
A: > 50 µM

Q: What about the IC50 (Homo sapiens, RD, RD cell line (muscle)) of the same compound?
A: > 50 µM

Q: What about the IC50 (Homo sapiens, Ramos, RAMOS cell line (hematological)) of the same compound?
A: > 50 µM

Q: What about the IC50 (Homo sapiens, SAOS-2, 72 h, SAOS2 cell line (bone)) of the same compound?
A: 6.6 µM

Q: And the IC50 (Homo sapiens, SF-268, 72 h, SF268 cell line (brain))?
A: 3.94 µM

Q: What about the IC50 (Homo sapiens, SF-295, 72 h, SF295 cell line (brain)) of the same compound?
A: 3.65 µM

Q: What about the IC50 (Homo sapiens, SK-BR-3, 72 h, SKBR3 cell line (breast)) of the same compound?
A: 0.22 µM

Q: What about the IC50 (Homo sapiens, SK-HEP1, 72 h, SKHEP1 cell line (liver)) of the same compound?
A: > 50 µM

Q: And the IC50 (Homo sapiens, SK-LMS-1, 72 h, SKLMS1 cell line (uterus))?
A: 3.55 µM

Q: What about the IC50 (Homo sapiens, SK-MEL-28, 72 h, SKMEL28 cell line (skin)) of the same compound?
A: > 50 µM

Q: And the IC50 (Homo sapiens, SK-N-AS, SKNAS cell line (brain))?
A: > 50 µM

Q: What about the IC50 (Homo sapiens, SK-N-SH, SKNSH cell line (brain)) of the same compound?
A: > 50 µM

Q: What about the IC50 (Homo sapiens, SK-OV-3, 72 h, SKOV3 cell line (ovary)) of the same compound?
A: 3.18 µM

Q: And the IC50 (Homo sapiens, SNB-75, 72 h, SNB75 cell line (brain))?
A: > 50 µM

Q: What about the IC50 (Homo sapiens, SU-DHL10, 72 h, SU-DHL-10 cell line (hematological)) of the same compound?
A: > 50 µM

Q: What about the IC50 (Homo sapiens, SU-DHL-6, 72 h, SU-DHL-6 cell line (hematological)) of the same compound?
A: > 50 µM

Q: And the IC50 (Homo sapiens, SW-620, 72 h, SW620 cell line (colon))?
A: 1.71 µM

Q: And the IC50 (Homo sapiens, T-24, 72 h, T24 cell line (bladder))?
A: 5.25 µM

Q: What about the IC50 (Homo sapiens, TE-671, 72 h, TE671 cell line (muscle)) of the same compound?
A: > 50 µM

Q: And the IC50 (Homo sapiens, THP-1, 72 h, THP-1 cell line (hematological))?
A: 5.57 µM

Q: What about the IC50 (Homo sapiens, U2OS, U2OS cell line (bone)) of the same compound?
A: > 50 µM

Q: What about the IC50 (Homo sapiens, U-87 MG, U87MG cell line (brain)) of the same compound?
A: > 50 µM

Q: What about the IC50 (Homo sapiens, UMUC3, 72 h, UMUC3 cell line (bladder)) of the same compound?
A: 7.75 µM

Q: What about the IC50 (Homo sapiens, UO-31, 72 h, UO31 cell line (kidney)) of the same compound?
A: > 50 µM

Q: What about the IC50 (Homo sapiens, WSU-NHL, WSU-NHL cell line (hematological)) of the same compound?
A: 5.66 µM

Q: What about the IC50 (MT-3, 72 h, MT3 cell line (breast)) of the same compound?
A: 3.17 µM

Q: And the IC50 (NCI-H358M, NCIH358M cell line (lung))?
A: 9.06 µM

Q: What about the IC50 (PBMC, PBMC (hematological)) of the same compound?
A: > 50 µM

Q: What about the IC50 (RD-ES, RDES cell line (bone)) of the same compound?
A: 3.48 µM

Reference: patent US20250215039A1, “NUCLEOSIDES FOR TREATING CANCER” (PRIMEFOUR THERAPEUTICS, INC., priority 2022, published 2025)
